Experimental data reported in patent US20240299316A1, “METHOD FOR TREATING CANCER WITH A[…] RADIATION” (LANTERN PHARMA INC., priority 2021, published 2024).
Entries after “also recorded” stand apart in the source; their conditions may differ.

Tested on: Panc03.27 xenografts
Assay: Radiation (RT) pretreatment followed by LP-184 in subcutaneous Panc03.27 pancreatic xenografts
Type: in vivo, Mice
Details: for interaction of radiation with LP-184 on tumor volume (synergy) / mean terminal tumor volume of LP-184+RT group relative to LP-184 alone or RT alone: 4 Gy RT + 3 mg/kg i.p. LP-184, 3 mg/kg; for interaction of radiation with LP-184 on tumor volume (synergy): average tumor volume over days post treatment initiation; for mean terminal tumor volume of LP-184+RT group relative to LP-184 alone or RT alone: p value 0.017
Protocol: Radiation (RT) pretreatment of pancreatic tumors and subsequent (−)-hydroxyureamethyl acylfulvene treatment in vivo, 4 Gy RT was administered once weekly followed the next day by 3 mg/kg i.p. LP-184 in Panc03.27 xenografts for a total of 3 weeks. Mice bearing pre-established subcutaneous. Panc03.27 xenografts were treated with vehicle control, 4 Gy RT alone, 3 mg/kg LP-184 alone or their combination.
A line plot of average tumor volume in cubic millimeters over days post treatment initiation in Panc03.27 subcutaneous xenograft tumors treated with vehicle control (gray circles; N=6) is shown, 4 Gy RT alone (red squares; N=5), 3 mg/kg i.p. LP-184 alone (green triangles; N=6), and RT+LP-184 (blue inverted triangles; N=10). Error bars represent SEM.

For `CC1=C2C(=CC(C)C2CN(O)C(N)=O)C(=O)[C@](C)(O)C12CC2` (single isomer, unassigned; (-)) [LP-184, (−)-hydroxyureamethyl acylfulvene], the “interaction of radiation with LP-184 on tumor volume (synergy)” value was “synergized”, the “interaction of radiation with LP-184 on tumor volume (synergy)” value (listed as hydroxyureamethyl acylfulvene) was “synergy” and the “mean terminal tumor volume of LP-184+RT group relative to LP-184 alone or RT alone” value (day 21) was “statistically significant differences; also recorded: statistically smaller”. The “mean terminal tumor volume of LP-184+RT group relative to LP-184 alone or RT alone” value (day 21, listed as hydroxyureamethyl acylfulvene) was “statistically smaller”, the “mean tumor volume, fold lower in LP-184+RT animals compared to LP-184 alone animals” value (4 Gy RT once weekly followed next day by 3 mg/kg i.p. LP-184, 3 weeks, terminal tumors day 21, p=0.017) was roughly 1.8 fold and the “comparison of excised xenograft tumors at study termination across treatment arms” value (LP-184+RT group, day 21, FIG. 3) was “smallest mean volume”. For the same compound, the “efficacy of combination therapy using post-radiation treatment” value (post-radiation treatment with LP-184, pancreatic cancer) was “effective”.
